Reference: ChEMBL document CHEMBL1909046, “DrugMatrix in vitro pharmacology data”

Tests used:
Glucocorticoid receptor = biological target: T1, Glucocorticoid receptor (Homo sapiens, UniProt P04150); settings: hela s3; note: in other assays of this panel Not Active means under 50% inhibition at 10 µM
T1 sequence (P04150 whole entry): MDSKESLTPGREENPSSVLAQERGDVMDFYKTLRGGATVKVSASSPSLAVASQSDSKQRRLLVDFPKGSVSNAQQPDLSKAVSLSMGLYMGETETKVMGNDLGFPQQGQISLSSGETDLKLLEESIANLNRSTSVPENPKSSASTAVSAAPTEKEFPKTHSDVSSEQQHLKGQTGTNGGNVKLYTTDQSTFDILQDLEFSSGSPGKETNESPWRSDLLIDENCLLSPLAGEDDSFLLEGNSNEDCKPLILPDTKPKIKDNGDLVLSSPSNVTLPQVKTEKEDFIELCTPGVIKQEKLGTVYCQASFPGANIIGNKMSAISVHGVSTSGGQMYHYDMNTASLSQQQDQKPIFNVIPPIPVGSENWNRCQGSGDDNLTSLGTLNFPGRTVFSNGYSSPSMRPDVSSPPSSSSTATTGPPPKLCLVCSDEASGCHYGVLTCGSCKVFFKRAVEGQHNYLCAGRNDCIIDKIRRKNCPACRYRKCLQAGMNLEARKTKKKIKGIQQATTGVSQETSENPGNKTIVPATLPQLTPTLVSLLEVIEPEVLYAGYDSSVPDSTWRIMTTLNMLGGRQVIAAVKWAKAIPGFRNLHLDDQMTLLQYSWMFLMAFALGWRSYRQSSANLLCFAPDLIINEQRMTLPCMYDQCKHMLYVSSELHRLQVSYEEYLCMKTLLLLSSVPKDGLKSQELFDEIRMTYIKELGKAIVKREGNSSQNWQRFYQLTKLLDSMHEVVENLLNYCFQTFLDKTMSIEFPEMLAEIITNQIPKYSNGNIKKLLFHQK

[1] = DRUGMATRIX: Glutamate, AMPA radioligand binding (ligand: [3H] AMPA); assay type: cell membranes, Rattus norvegicus, Wistar, Cerebral cortex, Membrane; settings: Not Active = under 50% inhibition at 10 µM
Estrogen receptor beta = Estrogen receptor beta (Homo sapiens, UniProt Q92731); settings: sf9; note: in other assays of this panel Not Active means under 50% inhibition at 10 µM
Sequence of Estrogen receptor beta (Q92731 whole entry): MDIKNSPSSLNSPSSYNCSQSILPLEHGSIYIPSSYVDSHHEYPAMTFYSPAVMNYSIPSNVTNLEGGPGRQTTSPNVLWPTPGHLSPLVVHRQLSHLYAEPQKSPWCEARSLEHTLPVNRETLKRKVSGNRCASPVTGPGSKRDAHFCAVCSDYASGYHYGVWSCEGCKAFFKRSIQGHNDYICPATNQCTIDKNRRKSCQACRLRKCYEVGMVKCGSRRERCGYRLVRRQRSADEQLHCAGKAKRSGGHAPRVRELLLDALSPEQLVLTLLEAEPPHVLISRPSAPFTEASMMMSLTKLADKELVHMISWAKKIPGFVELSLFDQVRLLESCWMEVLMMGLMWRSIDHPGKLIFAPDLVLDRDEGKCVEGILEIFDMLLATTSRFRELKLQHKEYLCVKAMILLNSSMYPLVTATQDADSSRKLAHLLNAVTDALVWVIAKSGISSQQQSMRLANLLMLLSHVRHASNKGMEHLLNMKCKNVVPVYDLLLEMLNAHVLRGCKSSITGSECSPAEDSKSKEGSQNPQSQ

[2] = biological target: Sodium-dependent dopamine transporter (Homo sapiens, UniProt Q01959); experiment: DRUGMATRIX: Dopamine Transporter radioligand binding (ligand: [125I] RTI-55); assay type: cell membranes, CHO-K1, Membrane; settings: Not Active = under 50% inhibition at 10 µM
Sequence of Sodium-dependent dopamine transporter (Q01959 whole entry): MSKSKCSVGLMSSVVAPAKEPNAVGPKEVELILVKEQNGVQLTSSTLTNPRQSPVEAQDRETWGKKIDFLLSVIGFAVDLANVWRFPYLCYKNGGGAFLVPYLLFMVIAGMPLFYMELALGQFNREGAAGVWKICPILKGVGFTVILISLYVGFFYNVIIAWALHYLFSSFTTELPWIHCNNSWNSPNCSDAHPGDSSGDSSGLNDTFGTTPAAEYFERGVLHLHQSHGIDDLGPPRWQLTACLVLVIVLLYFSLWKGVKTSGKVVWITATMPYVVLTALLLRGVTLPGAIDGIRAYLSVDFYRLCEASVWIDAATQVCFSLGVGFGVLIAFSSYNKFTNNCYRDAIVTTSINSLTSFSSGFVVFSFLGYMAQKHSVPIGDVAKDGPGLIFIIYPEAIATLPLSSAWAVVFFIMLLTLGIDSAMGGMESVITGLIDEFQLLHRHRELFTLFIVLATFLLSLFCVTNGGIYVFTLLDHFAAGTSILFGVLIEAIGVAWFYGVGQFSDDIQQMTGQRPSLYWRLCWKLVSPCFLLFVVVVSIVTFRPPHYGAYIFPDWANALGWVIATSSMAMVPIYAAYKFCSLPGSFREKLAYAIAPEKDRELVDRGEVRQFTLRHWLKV

[3] = biological target: 5-hydroxytryptamine receptor 2B (Homo sapiens, UniProt P41595); assay type: cell membranes, CHO-K1, Membrane; settings: for Ki: read-out: Ki; for all read-outs here: in other assays of this panel Not Active means under 50% inhibition at 10 µM
Sequence of 5-hydroxytryptamine receptor 2B (P41595 whole entry): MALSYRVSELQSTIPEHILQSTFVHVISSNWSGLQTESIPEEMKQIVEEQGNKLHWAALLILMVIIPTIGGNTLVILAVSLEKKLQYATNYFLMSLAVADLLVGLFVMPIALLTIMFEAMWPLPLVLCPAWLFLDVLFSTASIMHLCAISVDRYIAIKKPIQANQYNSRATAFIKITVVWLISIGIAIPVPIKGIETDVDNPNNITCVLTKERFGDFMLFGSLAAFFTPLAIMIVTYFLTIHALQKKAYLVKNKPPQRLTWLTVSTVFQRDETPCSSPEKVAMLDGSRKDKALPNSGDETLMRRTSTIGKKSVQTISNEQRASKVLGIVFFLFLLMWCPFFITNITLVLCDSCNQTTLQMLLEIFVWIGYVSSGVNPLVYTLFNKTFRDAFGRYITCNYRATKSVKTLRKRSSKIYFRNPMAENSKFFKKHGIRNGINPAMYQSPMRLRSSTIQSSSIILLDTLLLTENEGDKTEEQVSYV

[4] = DRUGMATRIX: Nicotinic Acetylcholine radioligand binding (ligand: [125I] Epibatidine); assay type: cell membranes, Membrane; settings: imr-32; Not Active = under 50% inhibition at 10 µM
Caspase-1 = biological target: T2, Caspase-1 (Homo sapiens, UniProt P29466); parameters: species or system Escherichia coli;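 note: Caspase-1 enzyme inhibition assay with a peptide substrate; in other assays of this panel Not Active means under 50% inhibition at 10 µM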
T2 sequence (P29466 whole entry): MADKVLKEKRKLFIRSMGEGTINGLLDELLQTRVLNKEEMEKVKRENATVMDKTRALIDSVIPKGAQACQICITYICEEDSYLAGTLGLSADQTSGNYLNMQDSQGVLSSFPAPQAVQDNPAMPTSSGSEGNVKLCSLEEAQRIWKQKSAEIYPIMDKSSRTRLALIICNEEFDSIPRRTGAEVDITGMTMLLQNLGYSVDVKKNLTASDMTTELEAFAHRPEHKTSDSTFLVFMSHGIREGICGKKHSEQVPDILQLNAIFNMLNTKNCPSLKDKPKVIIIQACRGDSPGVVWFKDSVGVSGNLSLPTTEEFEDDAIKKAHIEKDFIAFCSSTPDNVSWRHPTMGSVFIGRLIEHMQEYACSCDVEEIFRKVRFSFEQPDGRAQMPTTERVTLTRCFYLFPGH

Row | Compound | IC50 (Glucocorticoid receptor) | IC50 [1] | Ki [1] | IC50 (Estrogen receptor beta) | IC50 ([2]; cho-k1) | IC50 ([3]; read-out: IC50) | Ki [3] | IC50 [4] | Ki [4] | IC50 (Caspase-1) | IC50 ([3]; cho-k1) | IC50 ([2]; read-out: IC50) | Ki ([2]; read-out: Ki)
1 | O=C(c1ccccc1C(F)(F)F)N1CCC(Cc2ccccc2)CC1 | Not Active | Not Active | Not Active | Not Active | Not Active | 1550 nM | 986 nM | Not Active | Not Active | Not Active |  |  | 
2 | Nc1ccc2c3c(cccc13)C(=O)NC2=O | Not Active | Not Active | Not Active | Not Active | Not Active |  |  | Not Active | Not Active | Not Active | Not Active |  | 
3 | O=c1cnn([C@@H]2O[C@H](CO)[C@@H](O)[C@H]2O)c(=O)[nH]1 [6-AZAURIDINE] | Not Active | Not Active | Not Active | Not Active | Not Active |  |  | Not Active | Not Active | Not Active | Not Active |  | 
4 | NCCCC(O)(P(=O)(O)O)P(=O)(O)O [ALENDRONIC ACID] | Not Active | Not Active | Not Active | Not Active | Not Active |  |  | Not Active | Not Active | Not Active | Not Active |  | 
5 | Cc1nnc2n1-c1ccc(Cl)cc1C(c1ccccc1)=NC2 [ALPRAZOLAM] | Not Active | Not Active | Not Active | Not Active | Not Active |  |  | Not Active | Not Active | Not Active | Not Active |  | 
6 | COc1ccc(C2C(=O)c3ccccc3C2=O)cc1 [ANISINDIONE] | Not Active | Not Active | Not Active | Not Active | Not Active |  |  | Not Active | Not Active | Not Active | Not Active |  | 
7 | O=C1O[C@H]([C@@H](O)CO)C(O)=C1O [ASCORBIC ACID] | Not Active | Not Active | Not Active | Not Active | Not Active |  |  | Not Active | Not Active | Not Active | Not Active |  | 
8 | CN1[C@@H]2CC[C@H]1C[C@@H](OC(=O)C(CO)c1ccccc1)C2 (stereo partly specified) [ATROPINE] | Not Active | Not Active | Not Active | Not Active | Not Active |  |  | Not Active | Not Active | Not Active | Not Active |  | 
9 | CC(C(=O)O)c1ccc2oc(-c3ccc(Cl)cc3)nc2c1 (stereo unspecified) [BENOXAPROFEN] | Not Active | Not Active | Not Active | Not Active | Not Active |  |  | Not Active | Not Active | Not Active | Not Active |  | 
10 | Cc1cc2c(OCC(CNC(C)(C)C)OC(=O)c3ccccc3)cccc2[nH]1 (stereo unspecified) [BOPINDOLOL] | Not Active | Not Active | Not Active | Not Active | Not Active | 1520 nM | 969 nM | Not Active | Not Active | Not Active |  |  | 
11 | Brc1c(NC2=NCCN2)ccc2nccnc12 [BRIMONIDINE] | Not Active | Not Active | Not Active | Not Active | Not Active |  |  | Not Active | Not Active | Not Active | Not Active |  | 
12 | CN(C)[C@@H]1C(O)=C(C(N)=O)C(=O)[C@@]2(O)C(O)=C3C(=O)c4c(O)ccc(Cl)c4[C@@](C)(O)[C@H]3C[C@@H]12 [CHLORTETRACYCLINE] | Not Active | Not Active | Not Active | Not Active | Not Active |  |  | Not Active | Not Active | Not Active | Not Active |  | 
13 | CCC(=O)O[C@]1(C(=O)CCl)[C@@H](C)C[C@H]2[C@@H]3CCC4=CC(=O)C=C[C@]4(C)[C@@]3(F)[C@@H](O)C[C@@]21C [CLOBETASOL PROPIONATE] |  | Not Active | Not Active | Not Active | Not Active |  |  | Not Active | Not Active | Not Active | Not Active |  | 
14 | O=C1CN=C(c2ccccc2Cl)c2cc([N+](=O)[O-])ccc2N1 [CLONAZEPAM] | Not Active | Not Active | Not Active | Not Active | Not Active |  |  | Not Active | Not Active | Not Active | Not Active |  | 
15 | C[C@@H]1C[C@H]2[C@@H]3CCC4=CC(=O)C=C[C@]4(C)[C@@]3(F)[C@@H](O)C[C@]2(C)[C@H]1C(=O)CO [DESOXIMETASONE] |  | Not Active | Not Active | Not Active | Not Active |  |  | Not Active | Not Active | Not Active | Not Active |  | 
16 | COc1cc([C@@H]2c3cc4c(cc3[C@@H](O[C@@H]3O[C@@H]5CO[C@@H](C)O[C@H]5[C@H](O)[C@H]3O)[C@H]3COC(=O)[C@H]23)OCO4)cc(OC)c1O [ETOPOSIDE] |  | Not Active | Not Active | Not Active | Not Active |  |  | Not Active | Not Active | Not Active | Not Active |  | 
17 | CC(C(=O)O)c1cccc(Oc2ccccc2)c1 (stereo unspecified) [FENOPROFEN] |  | Not Active | Not Active | Not Active | Not Active |  |  | Not Active | Not Active | Not Active | Not Active |  | 
18 | Oc1c(Cl)cc(Cl)c(Cl)c1Cc1c(O)c(Cl)cc(Cl)c1Cl [HEXACHLOROPHENE] | Not Active | Not Active | Not Active | Not Active | Not Active |  |  | Not Active | Not Active | Not Active |  |  | 
19 | CC(=O)[C@@]1(O)CC[C@H]2[C@@H]3CCC4=CC(=O)CC[C@]4(C)[C@H]3CC[C@@]21C [HYDROXYPROGESTERONE] |  | Not Active | Not Active | Not Active |  |  |  | Not Active | Not Active | Not Active | Not Active | 6.91 µM | 5.49 µM
20 | NC(=O)C[S+]([O-])C(c1ccccc1)c1ccccc1 (stereo unspecified) [MODAFINIL] | Not Active | Not Active | Not Active | Not Active |  |  |  | Not Active | Not Active | Not Active | Not Active |  | 
21 | C[C@]12C=CC(=O)C=C1CC[C@@H]1[C@@H]2[C@@H](O)C[C@@]2(C)[C@H]1CC[C@]2(O)C(=O)CO [PREDNISOLONE] |  | Not Active | Not Active | Not Active | Not Active |  |  | Not Active | Not Active | Not Active | Not Active |  | 
22 | CC(=O)[C@H]1[C@H](C#N)C[C@H]2[C@@H]3CC=C4C[C@@H](O)CC[C@]4(C)[C@H]3CC[C@@]21C [PREGNENOLONE CARBONITRILE] |  | Not Active | Not Active | Not Active | Not Active |  |  | Not Active | Not Active | Not Active | Not Active |  | 
23 | CC(C)c1cccc(C(C)C)c1O [PROPOFOL] |  | Not Active | Not Active | Not Active | Not Active | 5500 nM | 3500 nM | Not Active | Not Active | Not Active |  |  | 
